Source: PubChem BioAssay (NCI)
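How tested: cells in 96-well plates exposed to compound for 48 hours at five concentrations. Here, GI50 denotes the concentration required for 50% inhibition of growth. Definition used: TGI = concentration required for complete inhibition of growth.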

Columns and labels:
Assay in all cases: DTP human tumour cell line panel, 48 h
U251 CNS = system: U251 CNS
PC-3 prostate = system: PC-3 prostate
MCF7 breast = system: MCF7 breast
OVCAR-5 ovarian = system: OVCAR-5 ovarian
HL-60(TB) leukemia = system: HL-60(TB) leukemia
K-562 leukemia = system: K-562 leukemia
NCI-H460 lung = system: NCI-H460 lung
M14 melanoma = system: M14 melanoma
SNB-19 CNS = system: SNB-19 CNS
HOP-62 NSCLC = system: HOP-62 NSCLC
UACC-257 melanoma = system: UACC-257 melanoma
SK-MEL-28 melanoma = system: SK-MEL-28 melanoma
HCT-15 colon = system: HCT-15 colon
HCT-116 colon = system: HCT-116 colon
EKVX NSCLC = system: EKVX NSCLC
OVCAR-4 ovarian = system: OVCAR-4 ovarian
NCI-H226 lung = system: NCI-H226 lung
SK-MEL-2 melanoma = system: SK-MEL-2 melanoma
MALME-3M melanoma = system: MALME-3M melanoma
RPMI-8226 leukemia = system: RPMI-8226 leukemia
SN12C renal = system: SN12C renal
MDA-MB-231 breast = system: MDA-MB-231 breast
MDA-MB-435 = system: MDA-MB-435
TK-10 renal = system: TK-10 renal
A549 NSCLC = system: A549 NSCLC
BT-549 breast = system: BT-549 breast
OVCAR-3 ovarian = system: OVCAR-3 ovarian
786-0 renal = system: 786-0 renal
NCI/ADR-RES ovarian = system: NCI/ADR-RES ovarian
CAKI-1 renal = system: CAKI-1 renal
NCI-H23 lung = system: NCI-H23 lung
UACC-62 melanoma = system: UACC-62 melanoma
NCI-H522 lung = system: NCI-H522 lung
SK-MEL-5 melanoma = system: SK-MEL-5 melanoma
KM12 colon = system: KM12 colon
HS 578T breast = system: HS 578T breast
SNB-75 CNS = system: SNB-75 CNS
LOX IMVI melanoma = system: LOX IMVI melanoma
A498 renal = system: A498 renal
SF-539 CNS = system: SF-539 CNS
SW-620 colon = system: SW-620 colon
RXF 393 renal = system: RXF 393 renal
SF-295 CNS = system: SF-295 CNS
SF-268 CNS = system: SF-268 CNS
IGROV1 ovarian = system: IGROV1 ovarian
MOLT-4 leukemia = system: MOLT-4 leukemia
SK-OV-3 ovarian = system: SK-OV-3 ovarian
HOP-92 NSCLC = system: HOP-92 NSCLC
COLO 205 colon = system: COLO 205 colon
HT29 colon = system: HT29 colon
T-47D breast = system: T-47D breast
DU-145 prostate = system: DU-145 prostate
OVCAR-8 ovarian = system: OVCAR-8 ovarian
HCC-2998 colon = system: HCC-2998 colon

CC(=O)C1=C(C)N(Cc2ccccc2)C2(O)C=CC(=O)C3=C(O)c4ccccc4C(=O)C312 (stereo not drawn)
GI50 (U251 CNS): 3.38 µM
TGI (U251 CNS): 10.2 µM
GI50 (PC-3 prostate): 10.3 µM
TGI (PC-3 prostate): 31.2 µM
GI50 (MCF7 breast): 3.8 µM
TGI (MCF7 breast): 26.2 µM
GI50 (OVCAR-5 ovarian): 6.28 µM
TGI (OVCAR-5 ovarian): 25 µM
GI50 (HL-60(TB) leukemia): > 100 µM
TGI (HL-60(TB) leukemia): > 100 µM
GI50 (K-562 leukemia): 8.68 µM
TGI (K-562 leukemia): > 100 µM
GI50 (NCI-H460 lung): 7.24 µM
TGI (NCI-H460 lung): 41.3 µM
GI50 (M14 melanoma): 3.18 µM
TGI (M14 melanoma): 9.03 µM
GI50 (SNB-19 CNS): 16 µM
TGI (SNB-19 CNS): 44.1 µM
GI50 (HOP-62 NSCLC): 13.5 µM
TGI (HOP-62 NSCLC): 34.3 µM
GI50 (UACC-257 melanoma): 5.77 µM
TGI (UACC-257 melanoma): 30.5 µM
GI50 (SK-MEL-28 melanoma): 2.36 µM
TGI (SK-MEL-28 melanoma): 6.1 µM
GI50 (HCT-15 colon): 1.81 µM
TGI (HCT-15 colon): 4.51 µM
GI50 (HCT-116 colon): 1.99 µM
TGI (HCT-116 colon): 3.86 µM
GI50 (EKVX NSCLC): 16.4 µM
TGI (EKVX NSCLC): 33.8 µM
GI50 (OVCAR-4 ovarian): 4.84 µM
TGI (OVCAR-4 ovarian): 44.3 µM
GI50 (NCI-H226 lung): 8.12 µM
TGI (NCI-H226 lung): 22.1 µM
GI50 (SK-MEL-2 melanoma): 20.8 µM
TGI (SK-MEL-2 melanoma): > 100 µM
GI50 (MALME-3M melanoma): 1.44 µM
TGI (MALME-3M melanoma): 2.97 µM
GI50 (RPMI-8226 leukemia): 2.35 µM
TGI (RPMI-8226 leukemia): 6.38 µM
GI50 (SN12C renal): 1.82 µM
TGI (SN12C renal): 3.6 µM
GI50 (MDA-MB-231 breast): 2.1 µM
TGI (MDA-MB-231 breast): 5.97 µM
GI50 (MDA-MB-435): 2.26 µM
TGI (MDA-MB-435): 4.14 µM
GI50 (TK-10 renal): 2.82 µM
TGI (TK-10 renal): 6.18 µM
GI50 (A549 NSCLC): 20.1 µM
TGI (A549 NSCLC): > 100 µM
GI50 (BT-549 breast): 5.88 µM
TGI (BT-549 breast): 19.6 µM
GI50 (OVCAR-3 ovarian): 1.42 µM
TGI (OVCAR-3 ovarian): 3.14 µM
GI50 (786-0 renal): 2.26 µM
TGI (786-0 renal): 4.26 µM
GI50 (NCI/ADR-RES ovarian): 3.02 µM
TGI (NCI/ADR-RES ovarian): > 100 µM
GI50 (CAKI-1 renal): 2.47 µM
TGI (CAKI-1 renal): 6.37 µM
GI50 (NCI-H23 lung): 7.53 µM
TGI (NCI-H23 lung): 24.7 µM
GI50 (UACC-62 melanoma): 2.64 µM
TGI (UACC-62 melanoma): 7.64 µM
GI50 (NCI-H522 lung): 7.3 µM
TGI (NCI-H522 lung): > 100 µM
GI50 (SK-MEL-5 melanoma): 3.63 µM
TGI (SK-MEL-5 melanoma): 12.5 µM
GI50 (KM12 colon): 9.05 µM
TGI (KM12 colon): 26 µM
GI50 (HS 578T breast): 18.5 µM
TGI (HS 578T breast): 60 µM
GI50 (SNB-75 CNS): 4.88 µM
TGI (SNB-75 CNS): 25 µM
GI50 (LOX IMVI melanoma): 1.97 µM
TGI (LOX IMVI melanoma): 4.39 µM
GI50 (A498 renal): 22.7 µM
TGI (A498 renal): 38.1 µM
GI50 (SF-539 CNS): 2.91 µM
TGI (SF-539 CNS): 7.09 µM
GI50 (SW-620 colon): 2.24 µM
TGI (SW-620 colon): 5.22 µM
GI50 (RXF 393 renal): 3.27 µM
TGI (RXF 393 renal): 17.5 µM
GI50 (SF-295 CNS): 12.5 µM
TGI (SF-295 CNS): 27.9 µM
GI50 (SF-268 CNS): 10.4 µM
TGI (SF-268 CNS): 29.1 µM
GI50 (IGROV1 ovarian): 6.2 µM
TGI (IGROV1 ovarian): > 100 µM
GI50 (MOLT-4 leukemia): 3.34 µM
TGI (MOLT-4 leukemia): > 100 µM
GI50 (SK-OV-3 ovarian): 18.3 µM
TGI (SK-OV-3 ovarian): 42.4 µM
GI50 (HOP-92 NSCLC): 3.73 µM
TGI (HOP-92 NSCLC): 7.77 µM
GI50 (COLO 205 colon): 2.38 µM
TGI (COLO 205 colon): 5.04 µM
GI50 (HT29 colon): 3.71 µM
TGI (HT29 colon): > 100 µM
GI50 (T-47D breast): 2.71 µM
TGI (T-47D breast): 7.97 µM
GI50 (DU-145 prostate): 4.57 µM
TGI (DU-145 prostate): 19.7 µM
GI50 (OVCAR-8 ovarian): 6.25 µM
TGI (OVCAR-8 ovarian): 30 µM
GI50 (HCC-2998 colon): 13 µM
TGI (HCC-2998 colon): 36.4 µM
